Test: Displacement of [3H]DTG from sigma opioid receptor of homogenized guinea pig whole brain

Compound	IC50 [nM]
Cc1cc(F)ccc1N=C(N)NC12CC3CC(CC(C3)C1)C2	3.2
NC(=NC12CC3CC(CC(C3)C1)C2)Nc1cccc(I)c1	8
NC(=Nc1ccccc1I)NC12CC3CC(CC(C3)C1)C2	6.2

Second part, the compound after the results:

IC50 [nM]	Compound
7	COc1ccc(N=C(N)NC23CC4CC(CC(C4)C2)C3)c(C)c1
17	COc1ccccc1N=C(N)NC12CC3CC(CC(C3)C1)C2
7	COc1cccc(NC(N)=NC23CC4CC(CC(C4)C2)C3)c1
10	COc1ccc(NC(N)=NC23CC4CC(CC(C4)C2)C3)cc1

Source: BindingDB's records for doi:10.1021/jm00110a017 (Institutions, 1991)
